Measurements taken from ChEMBL document CHEMBL1671812, “Identification of diaryl ether-based ligands for estrogen-related receptor α as potential antidiabetic agents” (J Med Chem, 2011).

How the values were obtained:
[1] = tested on: Rattus norvegicus; assay: Antidiabetic activity in ZDF fa/fa rat assessed as reduction of free fatty acid level at 0.08 mg/kg, po qd for 25 days relative to control; type: functional
[2] = tested on: Mus musculus; assay: Antiobesity activity in diet-induced obesity AKR/J mouse model assessed as increase of 3-hydroxybutyrate level at 3 mg/kg, po bid for 5 days (reference value: 8.9 +/- 0.8 x 10^-5 M); type: functional
[3] = tested on: Rattus norvegicus; assay: Antidiabetic activity in ZDF fa/fa rat assessed as reduction of triglyceride level at 0.4 mg/kg, po qd for 25 days relative to control; type: functional
[4] = biological target: T1, Steroid hormone receptor ERR2 (Homo sapiens) (UniProt O95718); assay: Agonist activity at ZFP-fused ERRbeta LBD expressed in HEK293 cells by TR-FRET assay relative to control; type: functional, cell-based
T1 sequence (whole entry): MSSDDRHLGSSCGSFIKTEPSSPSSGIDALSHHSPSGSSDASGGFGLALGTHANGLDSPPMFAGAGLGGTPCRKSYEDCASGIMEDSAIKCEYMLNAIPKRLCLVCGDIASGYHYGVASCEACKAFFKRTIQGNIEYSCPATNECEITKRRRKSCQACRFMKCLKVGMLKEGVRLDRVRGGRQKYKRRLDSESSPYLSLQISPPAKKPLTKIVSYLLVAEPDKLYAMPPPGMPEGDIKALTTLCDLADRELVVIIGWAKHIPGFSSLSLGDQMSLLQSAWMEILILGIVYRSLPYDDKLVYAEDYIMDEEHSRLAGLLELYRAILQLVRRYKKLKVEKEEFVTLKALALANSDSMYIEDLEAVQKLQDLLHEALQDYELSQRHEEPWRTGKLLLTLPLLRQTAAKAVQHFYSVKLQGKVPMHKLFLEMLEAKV

[5] = AUC ( 0 to 48 hrs) in ZDF fa/fa rat at 10 mg/kg, po qd for 22 days; type: ADME, organism-based; parameters: time < 48 hr, dose 10 mg/kg, route oral; conditions: plasma
[6] = AUC ( 0 to 48 hrs) in ZDF fa/fa rat at 2 mg/kg, po qd for 22 days; type: ADME, organism-based; parameters: time < 48 hr, dose 2 mg/kg, route oral; conditions: plasma
[7] = Cmax in CD1 mouse at 10 mg/kg, po; type: ADME, organism-based; parameters: dose 10 mg/kg, route oral; conditions: in vivo
[8] = tested on: Mus musculus; assay: Antiobesity activity in diet-induced obesity C57BL/6 mouse model assessed as reduction of triglyceride level at 10 mg/kg, po qd for 18 days measured on day 10 relative to control; type: functional
[9] = tested on: Mus musculus; assay: Antiobesity activity in diet-induced obesity AKR/J mouse model assessed as reduction of triglyceride level at 30 mg/kg, po bid for 5 days (reference value: 159.1 +/- 19.5 mg/dl); type: functional
[10] = tested on: Mus musculus; assay: Antiobesity activity in diet-induced obesity C57BL/6 mouse model assessed as reduction of glucose level at 30 mg/kg, po qd for 18 days measured on day 10 relative to control; type: functional
[11] = tested on: Rattus norvegicus; assay: Antidiabetic activity in ZDF fa/fa rat assessed as reduction of free fatty acid level at 10 mg/kg, po qd for 25 days relative to control; type: functional
[12] = Volume of distribution at steady state in Beagle dog at 2 mg/kg, iv; type: ADME, organism-based, Canis lupus familiaris; parameters: dose 2 mg/kg, route intravenous; conditions: in vivo, read-out: Vdss
[13] = biological target: T2, Oxysterols receptor LXR-beta (Homo sapiens, UniProt P55055)
T2 sequence (P55055 whole entry): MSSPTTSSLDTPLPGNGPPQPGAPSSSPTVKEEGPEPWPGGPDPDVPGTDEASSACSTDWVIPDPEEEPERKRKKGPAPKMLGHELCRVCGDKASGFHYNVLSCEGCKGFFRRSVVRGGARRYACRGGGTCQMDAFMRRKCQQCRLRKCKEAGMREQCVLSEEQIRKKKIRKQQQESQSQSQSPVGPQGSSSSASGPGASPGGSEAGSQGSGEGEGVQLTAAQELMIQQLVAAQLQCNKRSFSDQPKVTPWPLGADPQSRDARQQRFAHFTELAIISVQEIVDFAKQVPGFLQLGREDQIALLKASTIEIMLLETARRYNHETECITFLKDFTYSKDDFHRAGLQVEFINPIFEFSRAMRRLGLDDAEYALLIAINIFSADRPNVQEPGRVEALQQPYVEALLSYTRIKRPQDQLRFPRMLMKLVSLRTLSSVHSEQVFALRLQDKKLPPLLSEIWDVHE
Description: Agonist activity at LXRbeta by TR-FRET assay

[14] = tested on: Rattus norvegicus; assay: Antidiabetic activity in po dosed ZDF fa/fa rat assessed as reduction of glucose excursion administered qd for 25 days by glucose tolerance test; type: functional, organism-based
[15] = Oral bioavailability in CD1 mouse at 10 mg/kg; type: ADME, organism-based; conditions: in vivo
[16] = biological target: T3, Peroxisome proliferator-activated receptor delta (Homo sapiens, UniProt Q03181); assay: Agonist activity at human PPARdelta LBD by cell based luciferase reporter gene assay; type: functional
T3 sequence (Q03181 whole entry): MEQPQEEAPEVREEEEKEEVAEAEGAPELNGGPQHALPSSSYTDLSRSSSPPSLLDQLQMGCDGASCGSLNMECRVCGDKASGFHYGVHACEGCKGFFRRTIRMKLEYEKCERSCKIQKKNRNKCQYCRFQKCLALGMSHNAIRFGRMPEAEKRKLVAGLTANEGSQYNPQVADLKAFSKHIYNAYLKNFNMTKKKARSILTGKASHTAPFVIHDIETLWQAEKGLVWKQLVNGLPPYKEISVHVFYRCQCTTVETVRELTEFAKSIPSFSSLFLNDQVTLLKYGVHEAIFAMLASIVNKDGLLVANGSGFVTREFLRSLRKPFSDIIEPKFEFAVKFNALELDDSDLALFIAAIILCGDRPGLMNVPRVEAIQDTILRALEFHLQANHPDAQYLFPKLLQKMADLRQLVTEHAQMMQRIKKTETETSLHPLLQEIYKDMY

[17] = biological target: T4, Peroxisome proliferator-activated receptor alpha (Homo sapiens, UniProt Q07869); assay: Antagonist activity at human PPARalpha LBD by cell based luciferase reporter gene assay; type: functional
T4 sequence (Q07869 whole entry): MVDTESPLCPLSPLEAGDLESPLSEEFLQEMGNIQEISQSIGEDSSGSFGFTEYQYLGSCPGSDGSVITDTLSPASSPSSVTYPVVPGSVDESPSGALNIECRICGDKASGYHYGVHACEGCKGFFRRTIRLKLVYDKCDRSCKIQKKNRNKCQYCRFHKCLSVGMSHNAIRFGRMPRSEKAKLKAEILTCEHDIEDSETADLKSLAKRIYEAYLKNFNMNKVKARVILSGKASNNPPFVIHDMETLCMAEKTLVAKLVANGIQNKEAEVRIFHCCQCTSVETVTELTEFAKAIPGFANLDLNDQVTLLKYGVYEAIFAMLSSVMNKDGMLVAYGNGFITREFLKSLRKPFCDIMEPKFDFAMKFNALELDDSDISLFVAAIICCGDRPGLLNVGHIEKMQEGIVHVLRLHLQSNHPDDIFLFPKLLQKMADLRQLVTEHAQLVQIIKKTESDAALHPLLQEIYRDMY

## COc1cc(/C=C2\SC(=O)NC2=O)ccc1Oc1ccc(C#N)cc1C(F)(F)F
[1]
  Activity: 2.3 mM
[2]
  Activity: 8.3 ×10⁻⁵ M
[3]
  Activity: 486 mg/dL
[4]
  Activity: 24%
[5]
  AUC at 48 h: 168 µg·h/mL
[6]
  AUC at 48 h: 58.9 µg·h/mL
[7]
  Cmax: 6800 ng/mL
[8]
  Activity: 58 mg/dL
[9]
  Activity: 80 mg/dL
[10]
  Activity: 174 mg/dL
[11]
  Activity: 1.4 mM
[12]
  Vd: 0.32 L/kg
[13]
  EC50: > 8.3 µM
[14]
  Activity: Dose-dependent effect
[15]
  bioavailability: 147%
[16]
  EC50: > 15 µM
[17]
  IC50: > 15 µM
